Source: PubChem BioAssay AID1259411 (Chemical Carcinogenesis Research Information System (CCRIS), 2018)
Activity calls are given as the source filed them. How the calls were made is not given here.

Test system: rodent carcinogenicity bioassays, tumor incidence
Assay: CCRIS carcinogenicity studies
Procedure, shortened: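 Archive of carcinogenicity, mutagenicity, tumor promotion and tumor inhibition results drawn from journals, NCI reports and other sources, expert-reviewed; covers 1985-2011 and is no longer updated.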

C=CCOCC1CO1 (configuration not stated)
carcinogen call (Species: MOUSE, Strain/Sex: B6C3F1/FEMALE, Route: INHALATION, Dose: 0, 5, 10 PPM 6 HR/D 5 D/WK FOR 102 WK (STUDY DURATION: 105 WK), Dose: 0, 5, 10 PPM 6 HR/D 5 D/WK FOR 102 WK (STUDY DURATION: 105 WK), Tumor Site: Type of Lesion: NOSE (RESPIRATORY EPITHELIUM): ADENOMA): equivocal
carcinogen call (Species: MOUSE, Strain/Sex: B6C3F1/MALE, Route: INHALATION, Dose: 0, 5, 10 PPM 6 HR/D 5 D/WK FOR 102 WK (STUDY DURATION: 105 WK), Dose: 0, 5, 10 PPM 6 HR/D 5 D/WK FOR 102 WK (STUDY DURATION: 105 WK), Tumor Site: Type of Lesion: NOSE (RESPIRATORY EPITHELIUM): ADENOMA): active; positive
carcinogen call (Species: RAT, Strain/Sex: OSBORNE-MENDEL/FEMALE, Route: INHALATION, Dose: 0, 5, 10 PPM 6 HR/D 5 D/WK FOR 103 WK (STUDY DURATION: 106 WK), Dose: 0, 5, 10 PPM 6 HR/D 5 D/WK FOR 103 WK (STUDY DURATION: 106 WK)): inactive; negative
carcinogen call (Species: RAT, Strain/Sex: OSBORNE-MENDEL/MALE, Route: INHALATION, Dose: 0, 5, 10 PPM 6 HR/D 5 D/WK FOR 103 WK (STUDY DURATION: 106 WK), Dose: 0, 5, 10 PPM 6 HR/D 5 D/WK FOR 103 WK (STUDY DURATION: 106 WK), Tumor Site: Type of Lesion: NOSE (RESPIRATORY OR OLFACTORY EPITHELIUM): PAPILLARY ADENOMA, SQUAMOUS CELL CARCINOMA, POORLY DIFFERENTIATED ADENOCARCI): equivocal

ClC(Cl)=C(Cl)Cl
carcinogen call (Species: MOUSE, Strain/Sex: B6C3F1/FEMALE, Route: GAVAGE, Dose: 0, 386, 772 MG/KG, TWA FOR 78 WKS, Dose: 0, 386, 772 MG/KG, TWA FOR 78 WKS, Tumor Site: Type of Lesion: LIVER: HEPATOCELLULAR CARCINOMA): active; positive
carcinogen call (Species: MOUSE, Strain/Sex: B6C3F1/FEMALE, Route: INHALATION, Dose: 0, 100, 200 PPM 6 HR/D, 5 D/WK FOR 103 WK, Dose: 0, 100, 200 PPM 6 HR/D, 5 D/WK FOR 103 WK, Tumor Site: Type of Lesion: LIVER: HEPATOCELLULAR CARCINOMA, HEPATOCELLULAR ADENOMA OR CARCINOMA): active; positive
carcinogen call (Species: MOUSE, Strain/Sex: B6C3F1/MALE, Route: GAVAGE, Dose: 0, 536, 1072 MG/KG, TWA FOR 78 WKS, Dose: 0, 536, 1072 MG/KG, TWA FOR 78 WKS, Tumor Site: Type of Lesion: LIVER: HEPATOCELLULAR CARCINOMA): active; positive
carcinogen call (Species: MOUSE, Strain/Sex: B6C3F1/MALE, Route: INHALATION, Dose: 0, 100, 200 PPM 6 HR/D, 5 D/WK FOR 103 WK, Dose: 0, 100, 200 PPM 6 HR/D, 5 D/WK FOR 103 WK, Tumor Site: Type of Lesion: LIVER: HEPATOCELLULAR ADENOMA, HEPATOCELLULAR CARCINOMA): active; positive
carcinogen call (Species: RAT, Strain/Sex: F344/FEMALE, Route: INHALATION, Dose: 0, 200, 400 PPM 6 HR/D, 5 D/WK FOR 103 WK, Dose: 0, 200, 400 PPM 6 HR/D, 5 D/WK FOR 103 WK, Tumor Site: Type of Lesion: HEMATOPOIETIC SYSTEM: MONONUCLEAR CELL LEUKEMIA): active; positive
carcinogen call (Species: RAT, Strain/Sex: F344/MALE, Route: INHALATION, Dose: 0, 200, 400 PPM 6 HR/D, 5 D/WK FOR 103 WK, Dose: 0, 200, 400 PPM 6 HR/D, 5 D/WK FOR 103 WK, Tumor Site: Type of Lesion: HEMATOPOIETIC SYSTEM: MONONUCLEAR CELL LEUKEMIA): active; positive

CCOP(=O)=O.CCOP(=O)=O.CCOP(=O)=O.[Al+3]
carcinogen call (Species: Mouse, Strain/Sex: CD-1/Female (60/Group), Route: Oral): inactive; negative
carcinogen call (Species: Mouse, Strain/Sex: CD-1/Male (60/Group), Route: Oral): inactive; negative
carcinogen call (Species: Rat, Strain/Sex: CD Sprague-Dawley/Male (80/Group), Route: Oral, Dose: 0, 88, 348, 1372 mg/kg/day in diet for 24 mo, study duration 24 mo, Dose: 0, 88, 348, 1372 mg/kg/day in diet for 24 mo, study duration 24 mo, Tumor Site: Type of Lesion: Adrenal medulla: pheochromocytoma (5/80, 7/79. 15/81, 16/81). Urinary bladder: Carcinoma and papilloma combined (1/78 in): active; positive. (department of pesticides regulation reviewer described as a possible
carcinogen call (Species: Rat, Strain/Sex: CD Sprague-Dawley/Male (80/Group), Route: Oral, Dose: 0, 117, 450, 1786 mg/kg/day in diet for 24 mo, study duration 24 mo, Dose: 0, 117, 450, 1786 mg/kg/day in diet for 24 mo, study duration 24 mo): inactive; negative

Nc1ccc2ccccc2c1
carcinogen call (Species: DOG, Route: ORAL, Tumor Site: Type of Lesion: URINARY BLADDER): active; positive
carcinogen call (Species: DOG, Strain/Sex: BEAGLE/FEMALE, Route: ORAL, Dose: 21.3 MG/KG 5/WK, Tumor Site: Type of Lesion: URINARY BLADDER: TRANSITIONAL CELL CARCINOMA): active; positive
carcinogen call (Species: DOG, Strain/Sex: BEAGLE/MALE, Route: ORAL, Dose: 18.4 MG/KG 5/WK, Tumor Site: Type of Lesion: URINARY BLADDER: TRANSITIONAL CELL CARCINOMA): active; positive
carcinogen call (Species: HAMSTER, Route: ORAL, Tumor Site: Type of Lesion: URINARY BLADDER): active; positive
carcinogen call (Species: HUMAN, Route: ORAL, INHALATION, DERMAL, Tumor Site: Type of Lesion: URINARY BLADDER): active; positive
carcinogen call (Species: MONKEY, Route: ORAL, Tumor Site: Type of Lesion: URINARY BLADDER): active; positive
carcinogen call (Species: MOUSE, Route: ORAL, Tumor Site: Type of Lesion: LIVER): active; positive

C=CC
carcinogen call (Species: MOUSE, Strain/Sex: B6C3F1/FEMALE, Route: INHALATION, Dose: 0, 5000, 10000 PPM IN AIR 6H/D 5D/WK FOR 103 WK (STUDY DURATION: 104 WK), Dose: 0, 5000, 10000 PPM IN AIR 6H/D 5D/WK FOR 103 WK (STUDY DURATION: 104 WK)): inactive; negative
carcinogen call (Species: MOUSE, Strain/Sex: B6C3F1/MALE, Route: INHALATION, Dose: 0, 5000, 10000 PPM IN AIR 6H/D 5D/WK FOR 103 WK (STUDY DURATION: 104 WK), Dose: 0, 5000, 10000 PPM IN AIR 6H/D 5D/WK FOR 103 WK (STUDY DURATION: 104 WK)): inactive; negative
carcinogen call (Species: MOUSE, Strain/Sex: SWISS/FEMALE, Route: INHALATION, Dose: 0, 200, 1000, 5000 PPM 7 HR/D, 5D/WK FOR 78 WK (STUDY DURATION: LIFESPAN), Dose: 0, 200, 1000, 5000 PPM 7 HR/D, 5D/WK FOR 78 WK (STUDY DURATION: LIFESPAN)): inactive; negative
carcinogen call (Species: MOUSE, Strain/Sex: SWISS/MALE, Route: INHALATION, Dose: 0, 200, 1000, 5000 PPM 7 HR/D, 5D/WK FOR 78 WK (STUDY DURATION: LIFESPAN), Dose: 0, 200, 1000, 5000 PPM 7 HR/D, 5D/WK FOR 78 WK (STUDY DURATION: LIFESPAN)): inactive; negative
carcinogen call (Species: RAT, Strain/Sex: F344/FEMALE, Route: INHALATION, Dose: 0, 5000, 10000 PPM IN AIR 6H/D 5D/WK FOR 103 WK (STUDY DURATION: 104 WK), Dose: 0, 5000, 10000 PPM IN AIR 6H/D 5D/WK FOR 103 WK (STUDY DURATION: 104 WK)): inactive; negative
carcinogen call (Species: RAT, Strain/Sex: F344/MALE, Route: INHALATION, Dose: 0, 5000, 10000 PPM IN AIR 6H/D 5D/WK FOR 103 WK (STUDY DURATION: 104 WK), Dose: 0, 5000, 10000 PPM IN AIR 6H/D 5D/WK FOR 103 WK (STUDY DURATION: 104 WK)): inactive; negative
carcinogen call (Species: RAT, Strain/Sex: SPRAGUE-DAWLEY/FEMALE, Route: INHALATION, Dose: 0, 200, 1000, 5000 PPM 7 HR/D, 5D/WK FOR 104 WK (STUDY DURATION: LIFESPAN), Dose: 0, 200, 1000, 5000 PPM 7 HR/D, 5D/WK FOR 104 WK (STUDY DURATION: LIFESPAN)): inactive; negative
carcinogen call (Species: RAT, Strain/Sex: SPRAGUE-DAWLEY/FEMALE, Route: INHALATION, Dose: 0, 200, 1000, 5000 PPM IN AIR 7 HR/D 5 D/WK FOR 104 WK (STUDY DURATION: LIFETIME), Dose: 0, 200, 1000, 5000 PPM IN AIR 7 HR/D 5 D/WK FOR 104 WK (STUDY DURATION: LIFETIME), Tumor Site: Type of Lesion: [BRAIN WAS ONLY SITE EVALUATED]): inactive; negative
carcinogen call (Species: RAT, Strain/Sex: SPRAGUE-DAWLEY/MALE, Route: INHALATION, Dose: 0, 200, 1000, 5000 PPM 7 HR/D, 5D/WK FOR 104 WK (STUDY DURATION: LIFESPAN), Dose: 0, 200, 1000, 5000 PPM 7 HR/D, 5D/WK FOR 104 WK (STUDY DURATION: LIFESPAN)): inactive; negative
carcinogen call (Species: RAT, Strain/Sex: SPRAGUE-DAWLEY/MALE, Route: INHALATION, Dose: 0, 200, 1000, 5000 PPM IN AIR 7 HR/D 5 D/WK FOR 104 WK (STUDY DURATION: LIFETIME), Dose: 0, 200, 1000, 5000 PPM IN AIR 7 HR/D 5 D/WK FOR 104 WK (STUDY DURATION: LIFETIME), Tumor Site: Type of Lesion: [BRAIN WAS ONLY SITE EVALUATED]): inactive; negative

CC(O)CN(C)c1ccc(NN)nn1 (configuration not stated)
carcinogen call (Species: MOUSE, Strain/Sex: B6C3F1/MALE,FEMALE, Route: ORAL, Dose: 100, 200, 400 PPM IN DRINKING WATER FOR 80 WK, Dose: 100, 200, 400 PPM IN DRINKING WATER FOR 80 WK): inactive; negative
